One data set concerns the target T1, CaSR (Homo sapiens, UniProt P41180).
T1 sequence (P41180 20-1078): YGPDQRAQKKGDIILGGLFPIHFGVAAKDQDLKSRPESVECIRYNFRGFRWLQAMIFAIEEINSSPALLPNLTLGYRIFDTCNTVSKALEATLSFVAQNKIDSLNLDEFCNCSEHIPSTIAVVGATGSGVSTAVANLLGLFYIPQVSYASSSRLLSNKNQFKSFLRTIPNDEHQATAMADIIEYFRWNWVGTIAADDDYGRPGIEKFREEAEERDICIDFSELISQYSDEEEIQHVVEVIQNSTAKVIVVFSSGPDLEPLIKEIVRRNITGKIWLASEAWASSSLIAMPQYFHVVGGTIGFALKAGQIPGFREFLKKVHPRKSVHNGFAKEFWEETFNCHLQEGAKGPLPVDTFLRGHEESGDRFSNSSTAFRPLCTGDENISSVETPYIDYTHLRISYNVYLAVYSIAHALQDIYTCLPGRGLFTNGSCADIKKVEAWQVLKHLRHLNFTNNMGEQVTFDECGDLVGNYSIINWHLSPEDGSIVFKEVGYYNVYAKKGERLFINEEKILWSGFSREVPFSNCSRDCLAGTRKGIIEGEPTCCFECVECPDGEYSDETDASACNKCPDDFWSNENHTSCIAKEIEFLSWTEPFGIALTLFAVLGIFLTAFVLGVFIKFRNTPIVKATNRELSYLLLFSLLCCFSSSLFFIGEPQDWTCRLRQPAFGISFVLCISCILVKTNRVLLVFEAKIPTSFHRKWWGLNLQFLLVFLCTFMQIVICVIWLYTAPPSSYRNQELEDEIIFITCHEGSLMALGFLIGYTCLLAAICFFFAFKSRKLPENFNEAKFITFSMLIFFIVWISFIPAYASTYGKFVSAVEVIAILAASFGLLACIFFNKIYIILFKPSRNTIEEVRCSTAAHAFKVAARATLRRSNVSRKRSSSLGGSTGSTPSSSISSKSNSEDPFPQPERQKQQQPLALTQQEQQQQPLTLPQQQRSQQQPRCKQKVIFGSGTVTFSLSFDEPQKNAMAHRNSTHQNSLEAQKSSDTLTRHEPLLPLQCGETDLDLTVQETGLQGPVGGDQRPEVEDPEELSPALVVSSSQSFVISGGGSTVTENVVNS
The conditions noted are these: cell-based assays at 2 mM extracellular calcium; read-out: IC50, inhibition of the CaSR via allosteric modulation; cited from earlier work.

A further data set has as its system subjects with ADH1. Kind of data set: Phase 2b open-label dose-ranging study, Period 2. The class given is in vivo, human. On the procedure:
Period 2: an inpatient stay that consists of 5 dosing days during which subjects will receive BID doses of CLTX-305 based on individual responses from Period 1 (for subjects who complete Period 1) or review of aggregate data from Period 1 (for subjects in Cohort 2 entering Period 2 without prior exposure to CLTX-305). The initial dose, dose level 1 (DL1) will be administered for 2 days (48 hours) with cCa monitoring. Participants will undergo encaleret dose up- or down-titration depending on cCa levels, with a potential increase in dose if cCa remains below the lower limit of normal and potential decrease in dose if cCa is greater than or equal to the upper limit of normal. A final test day (Day 5) will include frequent blood and urine sampling to collect 24-hour PK/PD profiles after at least 3 consecutive days of dosing (at either DL1 or DL2).
In Period 2, eligible Cohort 1 subjects, who have completed Period 1, may return after at least 8 weeks for admission to NIH for Period 2. After all Cohort 1 subjects have finished Period 1 and the data analyzed, the Sponsor will open enrolment for Cohort 2 subjects. Eligible Cohort 2 subjects may enroll directly into Period 2, after completing the screening and consent process per protocol. In Period 2 all subjects will initiate CLTX-305 BID dosing given within 30 minutes prior to breakfast and dinner on Days 1 and 2. cCa concentrations will be monitored frequently throughout Period 2, and CLTX-305 doses will be up- or down-titrated as needed to target normal cCa concentrations. Assessment of the 24-hour PK/PD profile of CLTX-305 with BID dosing will be conducted on Day 5.
As a result, all remaining subjects in Period 2 will receive an initial CLTX-305 90 mg BID dose for at least 3-4 doses for evaluation of safety, tolerability and the ability to modulate cCa levels. The CLTX-305 dose will be up- or down-titrated as needed to maintain cCa levels below 10 mg/dL and blood phosphorus levels above the lower limit of normal. […]

In another data set the test system is healthy subjects. The settings on record: single oral dose of up to 100 mg; cited from earlier work.
For data set [1] the following is noted: preclinical; dose-limiting effects were mechanism-based serum calcium elevations; cited from earlier work.

SMILES strings stand for the structures.

The term IC50 denotes the concentration at which inhibition is half-maximal. With `Cc1cc(-c2ccccc2[C@@H](C)OC[C@H](O)CNC(C)(C)Cc2ccc(Cl)c(F)c2)ccc1C(=O)O` [CLTX-305, encaleret], the IC50 on CaSR was 86.2 nM. Also, the serious adverse events entry in the data set with subjects with ADH1 (Period 2 (Periods 1 and 2)) is listed as “no serious adverse events reported”. The tolerability result in the data set on subjects with ADH1 (Period 2 (Periods 1 and 2), once or twice daily over 5 days) was “well-tolerated”. For the same molecule, the “Number of AEs” value in the data set with subjects with ADH1 (Period 2, n=13) is listed as 12 n. Moreover, the QTc prolongation result with healthy subjects is “no clinically meaningful QTc prolongation”. For the same molecule, the “off-target or organ-specific toxicities” value in data set [1] is listed as “no off-target or other tissue or organ-specific toxicities were identified”.

Source of the values: US20220087961A1, “TREATMENT METHODS OF TRIPHENYL CALCILYTIC COMPOUNDS” (CALCILYTIX THERAPEUTICS, INC., priority 2020, published 2022).
